Reference: paper PMC3226889 (Biochemistry, 2011)

What was measured:
APE1 redox activity = conditions: cell-based studies; ref [15], [17], [21], [23], [48]; cited from earlier work
APE1^ΔN38 = APE1^ΔN38 (Homo sapiens, UniProt P27695); assay: NMR chemical shift perturbation titration; type: binding
p50 (NF-kB subunit) = p50 (NF-kB subunit) (human, UniProt P19838 42-367); assay: EMSA
Chain of p50 (NF-kB subunit) (P19838 42-367): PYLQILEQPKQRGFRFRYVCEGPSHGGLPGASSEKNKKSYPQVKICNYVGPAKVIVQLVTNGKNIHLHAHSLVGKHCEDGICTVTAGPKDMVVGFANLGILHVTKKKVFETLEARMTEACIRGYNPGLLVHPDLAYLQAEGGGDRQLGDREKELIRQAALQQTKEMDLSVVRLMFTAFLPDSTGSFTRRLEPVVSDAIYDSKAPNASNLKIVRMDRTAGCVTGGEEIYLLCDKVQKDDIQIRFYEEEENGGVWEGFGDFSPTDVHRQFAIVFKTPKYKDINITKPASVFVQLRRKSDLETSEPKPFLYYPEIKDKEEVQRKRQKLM

Chain of APE1^ΔN38 (P27695 39-318): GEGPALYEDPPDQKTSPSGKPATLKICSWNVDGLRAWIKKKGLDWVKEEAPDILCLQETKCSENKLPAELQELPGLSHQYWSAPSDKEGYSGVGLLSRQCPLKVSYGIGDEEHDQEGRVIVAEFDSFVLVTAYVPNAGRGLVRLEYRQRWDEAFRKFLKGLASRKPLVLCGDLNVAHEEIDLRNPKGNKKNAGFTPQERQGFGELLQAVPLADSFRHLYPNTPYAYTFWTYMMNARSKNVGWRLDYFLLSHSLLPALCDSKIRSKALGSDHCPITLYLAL

## CCCCCCCCC/C(=C\C1=C(C)C(=O)C(OC)=C(OC)C1=O)C(=O)O [E3330, (E)-3-[2-(5,6-dimethoxy-3-methyl-1,4-benzoquinonyl)]-2-nonylpropenoic acid]
APE1 redox activity
  E3330 concentrations at which observed effects occur: 5 to 50 µM

## C/C(=C\C1=C(Cl)C(=O)c2ccccc2C1=O)C(=O)O [RN7-60, (E)-3-(3-chloro-1,4-naphthoquinon-2-yl)-2-methylpropenoic acid]
APE1^ΔN38
  Kd: 264 ± 72 µM
APE1^ΔN38; NMR conditions including 0.5 mM DTT
  covalent modification of Cys residues: no evidence for covalent modification of any Cys residue
APE1^ΔN38; similar conditions
  fold tighter affinity of RN7-60 than E3330: about 2 fold

B1: p50 DNA (dsDNA)
DNA 1: AAGGGACTTTCCGCTGGGGATTCCAT
DNA 2: ATGGAATCCCCAGCGGAAAGTCCCTT
modifications: 3'-terminal T of strand 1 is fluorescein-dT (printed as Y)
p50 (NF-kB subunit)
  binding result: binds
